Laboratory results published in patent publication US7183306B2, “Pyrazole derivatives” (Astellas Pharma Inc., priority 2002, dated 2007).

What was measured:
COX-I = target: T1, COX-I (Homo sapiens, UniProt P23219); assay: Whole blood assay for COX-I (TXB2 production); format: cell-based
T1 construct: Fresh blood was collected by syringe without anticoagulants from volunteers with consent; from tissue; host or cells: fresh human whole blood from volunteers, allowed to clot
Method: [B] Inhibiting Activity Against COX-I and COX-II (Whole Blood Assay) (i) Test Metho: Whole Blood Assay for COX-I
Fresh blood was collected by syringe without anticoagulants from volunteers with consent. The subjects had no apparent inflammatory conditions and had not taken any medication for at least 7 days prior to blood collection.
500 μl Aliquots of human whole blood were immediately incubated with 2 μl of either dimethyl sulfoxide vehicle or a test compound at final concentrations for 1 hr at 37° C. to allow the blood to clot. Appropriate treatments (no incubation) were used as blanks. At the end of the incubation, 5 μl of 250 mM Indomethacin was added to stop the reaction. The blood was centrifuged at 6000×g for 5 min at 4° C. to obtain serum. A 100 μl aliquot of serum was mixed with 400 μl methanol for protein precipitation. The supernatant was obtained by centrifuging at 6000×g for 5 min at 4° C. and was assayed for TXB2 using an enzyme immunoassay kit according to the manufacturer's procedure. For a test compound, the results were expressed as percent inhibition of thromboxane B2(TXB2) production relative to control incubations containing dimethyl sulfoxide vehicle.
The data were analyzed by that a test compound at the indicated concentrations was changed log value and was applied simple linear regression. IC50 value was calculated by least squares method.

COX-II = target: T2, COX-II (Homo sapiens, UniProt P35354); assay: Whole blood assay for COX-II (LPS-induced PGE2 production); format: cell-based; conditions: LPS 24 hrs at 37° C., inhibition of PGE2 production
T2 construct: incubation of the blood with 10 μl of 5 mg/ml lipopolysaccharide for 24 hrs at 37° C. for induction of COX-II; from tissue; host or cells: heparinized fresh human whole blood from volunteers, LPS-stimulated
T2 sequence (P35354 18-604): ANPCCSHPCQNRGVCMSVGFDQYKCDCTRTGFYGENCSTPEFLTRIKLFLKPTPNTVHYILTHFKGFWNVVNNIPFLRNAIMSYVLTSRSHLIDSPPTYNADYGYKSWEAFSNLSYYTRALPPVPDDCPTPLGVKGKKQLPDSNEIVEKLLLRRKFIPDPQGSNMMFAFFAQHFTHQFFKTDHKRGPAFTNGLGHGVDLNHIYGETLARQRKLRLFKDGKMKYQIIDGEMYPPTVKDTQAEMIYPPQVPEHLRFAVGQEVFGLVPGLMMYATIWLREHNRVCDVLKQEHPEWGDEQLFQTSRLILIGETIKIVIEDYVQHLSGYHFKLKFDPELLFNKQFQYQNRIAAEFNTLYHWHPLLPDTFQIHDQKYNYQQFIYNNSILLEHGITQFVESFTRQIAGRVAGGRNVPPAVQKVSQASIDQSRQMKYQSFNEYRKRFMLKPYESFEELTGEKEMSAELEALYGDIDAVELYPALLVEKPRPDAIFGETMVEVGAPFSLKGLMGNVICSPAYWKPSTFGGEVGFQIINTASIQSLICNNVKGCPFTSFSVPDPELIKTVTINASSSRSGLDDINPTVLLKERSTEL
Method: Whole Blood Assay for COX-II
Fresh blood was collected in heparinized tubes by syringe from volunteers with consent. The subjects had no apparent inflammatory conditions and had not taken any medication for at least 7 days prior to blood collection.
500 μl aliquots of human whole blood were incubated with either 2 μl dimethyl sulfoxide vehicle or 2 μl of a test compound at final concentrations for 15 min at 37° C. This was followed by incubation of the blood with 10 μl of 5 mg/ml lipopolysaccharide for 24 hrs at 37° C. for induction of COX-II. Appropriate PBS treatments (no LPS) were used as blanks. At the end of the incubation, the blood was centrifuged at 6000×g for 5 min at 4° C. to obtain plasma. A 100 μl aliquot of plasma was mixed with 400 μl methanol for protein precipitation. The supernatant was obtained by centrifuging at 6000×g for 5 min at 4° C. and was assayed for prostaglandin E2 (PGE2) using a radioimmunoassay kit after conversion of PGE2 to its methyl oximate derivative according to the manufacturer's procedure.
For a test compound, the results were expressed as percent inhibition of PGE2 production relative to control incubations containing dimethyl sulfoxide vehicle. The data were analyzed by that a test compound at the indicated concentrations was changed log value and was applied simple linear regression. IC50 value was calculated by least squares method.

[1] = test system: arthritic rats (adjuvant arthritis); assay: Analgesic activity: effect on adjuvant arthritis in rats (Randall-Selitto pain threshold); format: in vivo, Lewis rats; conditions: Rattus norvegicus, single dose, pain threshold of left hind paw 2 hrs after administration, threshold pressure of treated vs non-treated rats, ratio of 1.5 considered effective, read-out: The coefficient of analgesic

T1 sequence (P23219 24-599): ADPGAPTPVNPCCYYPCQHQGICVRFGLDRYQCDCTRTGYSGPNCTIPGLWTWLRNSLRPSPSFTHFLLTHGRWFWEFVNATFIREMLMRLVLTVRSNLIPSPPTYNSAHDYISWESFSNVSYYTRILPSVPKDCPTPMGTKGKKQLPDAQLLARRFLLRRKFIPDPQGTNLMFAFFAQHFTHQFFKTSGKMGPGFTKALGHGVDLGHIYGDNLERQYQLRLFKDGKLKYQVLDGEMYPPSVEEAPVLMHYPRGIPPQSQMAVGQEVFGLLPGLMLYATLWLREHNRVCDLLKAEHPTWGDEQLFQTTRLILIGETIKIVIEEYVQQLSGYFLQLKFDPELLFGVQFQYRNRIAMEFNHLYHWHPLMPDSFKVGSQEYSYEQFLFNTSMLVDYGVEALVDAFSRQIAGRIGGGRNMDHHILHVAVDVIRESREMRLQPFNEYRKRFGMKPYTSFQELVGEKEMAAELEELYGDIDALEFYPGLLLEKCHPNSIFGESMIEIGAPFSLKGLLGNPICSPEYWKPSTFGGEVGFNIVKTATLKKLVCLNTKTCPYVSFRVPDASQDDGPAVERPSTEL

| IC50 (COX-I) [nM] | melting point [°C] | IC50 (COX-II) [nM] | SMILES | response vs control in vivo at 3.2 mg/kg [1] [%] |
| --- | --- | --- | --- | --- |
| < 10 | 150.8 to 151 | > 100 | COc1ccc(-n2nc(C3CC3)cc2-c2ccc(OCCNC(N)=O)cc2)cc1 [Example 248] | ≥ 150 |
| < 10 | 141.5 to 142.1 | > 100 | COc1ccc(-n2nc(C(F)F)cc2-c2ccc(OCCNC(N)=O)cc2)cn1 [Example 250] | ≥ 150 |
